{"source": "paper PMC8845285", "about": "“Serotoninergic receptor ligands improve Tamoxifen effectiveness on breast cancer cells” (BMC Cancer, 2022)", "key": {"MCF10A cells": {"system": "MCF10A cells", "experiment": "MCF10A non-cancer breast epithelial cell viability, sulforhodamine B assay", "format": "cell-based, human", "details": "72 h", "description": "MCF7 (ER^+, PR^+, HER2^−), SKBR3 (ER^−, PR^+, HER2^+) and MDA-MB231 (ER^−, PR^−, HER2^−) human BC cells and MCF10A non-cancer breast epithelial cells were available in our laboratory. MCF7, SKBR3 and MDA-MB231 cells were cultured in DMEM, supplemented with 10% FBS, 2 mM glutamine, 100 units/ml penicillin and 100 units/ml streptomycin. MCF10A cells were cultured in MEBM, supplemented with 0.4% BPE, 0.1% hEGF, 0.1%, Insulin, 0.1% Hydrocortisone and 0.1% GA-1000. Cultures were maintained in a humidified atmosphere of 95% air and 5% CO2 at 37 °C. Treatment with SER were carried out in culture conditions. […]\nCells were fixed with 50% trichloroacetic acid for at least 2 h at 4 °C, washed with distilled and de-ionized water, air-dryed and stained 30 min with 0.4% sulforhodamine B in 1% acetic acid. […] Cell survival was assessed by optical density determination at 510 nm using a microplate reader.\nFig. 7 Effect of low doses of SER79 and SER68 on MCF7 and MCF10A cells. a Estrogen-starved MCF7 cells (48 h) were treated with Tamoxifen (5 μM) in presence of E2 (100nM) and SER79 (5 μM) or SER68 (20 μM, 5 μM). […] After 72 h, cell viability was assessed by sulforhodamine B assay (see Methods). […] After 72 h, mRNA levels of CTGF were determined by qPCR (see Methods and Table 1). […] After 72 h, cell viability was assessed by sulforhodamine B assay (see Methods). […]"}, "MCF7 cells": {"system": "MCF7 cells", "experiment": "MCF7 responsiveness to Tamoxifen in presence of SER, sulforhodamine B assay", "format": "cell-based, human", "details": "Tamoxifen 5 μM, E2 100 nM, 72 h, estrogen-starved MCF7", "description": "MCF7 (ER^+, PR^+, HER2^−), SKBR3 (ER^−, PR^+, HER2^+) and MDA-MB231 (ER^−, PR^−, HER2^−) human BC cells and MCF10A non-cancer breast epithelial cells were available in our laboratory. MCF7, SKBR3 and MDA-MB231 cells were cultured in DMEM, supplemented with 10% FBS, 2 mM glutamine, 100 units/ml penicillin and 100 units/ml streptomycin. MCF10A cells were cultured in MEBM, supplemented with 0.4% BPE, 0.1% hEGF, 0.1%, Insulin, 0.1% Hydrocortisone and 0.1% GA-1000. […] Treatment with SER were carried out in culture conditions. Treatment with Tamoxifen and/or SER were carried out upon 48 h estrogen starvation in phenol-red free medium supplemented with 10% Charcoal Stripped (C/S) FBS, 2 mM glutamine, 100 units/ml penicillin and 100 units/ml streptomycin.\nCells were fixed with 50% trichloroacetic acid for at least 2 h at 4 °C, washed with distilled and de-ionized water, air-dryed and stained 30 min with 0.4% sulforhodamine B in 1% acetic acid. Unbound dye was removed and 10 mM tris-HCl solution (pH 7.5) was added to dissolve the protein-bound dye. Cell survival was assessed by optical density determination at 510 nm using a microplate reader.\nAfter 72 h, cell cycle was assessed by Propidium Iodide staining (see Methods). […] As positive control, the cells were treated with E2 and SER alone (without Tamoxifen, dotted line). After 72 h, cell viability was assessed by sulforhodamine B assay (see Methods). […] After 72 h, mRNA levels of CTGF were determined by qPCR (see Methods and Table 1). Data were normalized on Ribosomal Protein S23 (Rps23) gene as internal standard and were reported as CTGF mRNA levels in MCF7 treated with SER relative to those in untreated cells (dotted line). a-c Data represent the mean ± SD of at least three independent triplicate experiments. * denotes statistically significant values compared with (a) percentage of untreated cells in G0/G1, S and G2/M cell cycle phase (*pval<0.05,**pval<0.01), (b) positive control (*adjp<0.05,**adjp <0.01,***adjp<0.001), (c) untreated cells (pval<0.05); # denotes statistically significant values compared with cells treated with Tamoxifen in absence of SER (#pval<0.05)\nFig. 7 Effect of low doses of SER79 and SER68 on MCF7 and MCF10A cells. a Estrogen-starved MCF7 cells (48 h) were treated with Tamoxifen (5 μM) in presence of E2 (100nM) and SER79 (5 μM) or SER68 (20 μM, 5 μM). As positive control, the cells were treated with E2 and SER alone (without Tamoxifen, dotted line). After 72 h, cell viability was assessed by sulforhodamine B assay (see Methods). […] After 72 h, mRNA levels of CTGF were determined by qPCR (see Methods and Table 1). Data were normalized on Ribosomal Protein S23 (Rps23) gene as internal standard. Bars represent CTGF mRNA levels in MCF7 treated with SER relative to those in untreated cells (dotted line). c MCF10A non-cancer breast epithelial cells were treated with SER79 (5 μM) or SER68 (20 μM). After 72 h, cell viability was assessed by sulforhodamine B assay (see Methods)."}}, "data": [{"smiles": "N#CN=C(NCCCN1CCN(C(c2ccc(F)cc2)c2ccc(F)cc2)CC1)c1ccccn1", "note": "[SER79]", "values": [{"measurement": "effect on MCF10A cell viability", "setting": "MCF10A cells; 5 μM", "value": "No effect was detected on cell viability"}, {"measurement": "further decrease of cell viability compared with Tamoxifen alone", "setting": "MCF7 cells; SER 5 μM", "value": "≈ 15%"}, {"measurement": "further decrease of cell viability compared with Tamoxifen alone", "setting": "MCF7 cells; SER at IC50 dose", "value": "≈ 15%"}]}, {"smiles": "O=C1C2C3C=CC(C3)C2C(=O)N1OCCN1CCN(c2ccc(Cl)c(Cl)c2)CC1", "note": "(stereo not shown) [SER68]", "values": [{"measurement": "effect on MCF10A cell viability", "setting": "MCF10A cells; 20 μM", "value": "No effect was detected on cell viability"}, {"measurement": "further decrease of cell viability compared with Tamoxifen alone", "setting": "MCF7 cells; SER 5 μM", "value": "No further effect"}, {"measurement": "further decrease of cell viability compared with Tamoxifen alone", "setting": "MCF7 cells; SER 20 μM", "value": "≈ 20%"}, {"measurement": "further decrease of cell viability compared with Tamoxifen alone", "setting": "MCF7 cells; SER at IC50 dose", "value": "≈ 30%"}]}]}
